# Data reported in paper PMC12888861, “Antibacterial activity of enmetazobactam against Acinetobacter spp.: a molecular dissection of mechanism of action and resistance determinants” (Antimicrobial Agents and Chemotherapy, 2025).
# Read-outs that look alike come from different tables or passages of the source.
# System: A. non-baumannii isolates (n = 87)
# Experiment: MIC, broth microdilution (EUCAST), A. non-baumannii isolates
# Format: cell-based, Acinetobacter spp. (non-baumannii)
# Conditions: for MIC: in combinations ETZ fixed at 8 mg/L
# Text: The bacterial strains used in this study comprised 208 clinical isolates from the Spanish National Acinetobacter spp. 2020 Multicenter Collection, which was previously characterized in detail by our research group, including whole-genome sequencing, phylogenetics studies, clonal dynamics, and resistance mechanisms ([2], [29]). Additionally, a collection of A. baumannii ATCC 17978 transformants coding the blaOXA-23, blaOXA-24/40, blaOXA-51, blaOXA-58, blaOXA-143, and blaOXA-201 genes, previously constructed and described by our group ([30]), was used to determine the activity of enmetazobactam against strains carrying the main CHDLs of A. baumannii.
# The antimicrobial susceptibility of the 208 Acinetobacter spp. isolates was assessed using the broth microdilution method, as described in the European Committee on Antimicrobial Susceptibility Testing (EUCAST) v.15 guidelines (http://www.eucast.org/clinical_breakpoints). […] MICs for enmetazobactam alone were assessed as well. […] Subsequently, MIC testing was also conducted with a collection of A. baumannii ATCC 17978 transformants expressing clinically relevant OXA-like carbapenemase genes.
# The A. baumannii ATCC 19606 strain was used as the reference strain in all susceptibility experiments, in duplicate assays. Antibiotics were purchased from Sigma-Aldrich, except enmetazobactam and durlobactam, which were obtained from Advanz Pharma and MedChemExpress, respectively.
# [1] = Acinetobacter, A. non-baumannii isolates (n=87), ETZ fixed 8 mg/L in combinations
# [2] = […], ETZ fixed 8 mg/L in combinations
structure (smiles),measurement,setting,value
CO/N=C(\C(=O)N[C@@H]1C(=O)N2C(C(=O)[O-])=C(C[N+]3(C)CCCC3)CS[C@H]12)c1csc(N)n1 [cefepime],MIC distribution 0.12,,1.1
same,MIC,"Acinetobacter baylyi, isolate NO-Ab27, Acinetobacter baylyi, read-out: MIC",0.5 µg/mL
same,MIC,"Acinetobacter beijerinckii, isolate NO-Ab122, Acinetobacter beijerinckii, read-out: MIC",2 µg/mL
same,MIC,"Acinetobacter bereziniae, isolate NO-Ab70, Acinetobacter bereziniae, read-out: MIC",1 µg/mL
same,MIC,"Acinetobacter bereziniae, isolate NO-Ab84, Acinetobacter bereziniae, read-out: MIC",1 µg/mL
same,MIC,"Acinetobacter bereziniae, isolate NO-Ab104, Acinetobacter bereziniae, read-out: MIC",0.5 µg/mL
same,MIC,"Acinetobacter bereziniae, isolate NO-Ab114, Acinetobacter bereziniae, read-out: MIC",1 µg/mL
same,MIC,"Acinetobacter bereziniae, isolate NO-Ab115, Acinetobacter bereziniae, read-out: MIC",1 µg/mL
same,MIC,"Acinetobacter bereziniae, isolate NO-Ab116, Acinetobacter bereziniae, read-out: MIC",1 µg/mL
same,MIC,"Acinetobacter bereziniae, isolate NO-Ab117, Acinetobacter bereziniae, read-out: MIC",4 µg/mL
same,MIC,"Acinetobacter bereziniae, isolate NO-Ab129, Acinetobacter bereziniae, read-out: MIC",1 µg/mL
same,MIC,"Acinetobacter bereziniae, isolate NO-Ab156, Acinetobacter bereziniae, read-out: MIC",1 µg/mL
same,MIC,"Acinetobacter calcoaceticus, isolate NO-Ab85, Acinetobacter calcoaceticus, read-out: MIC",4 µg/mL
same,MIC,"Acinetobacter calcoaceticus, isolate NO-Ab94, Acinetobacter calcoaceticus, read-out: MIC",2 µg/mL
same,MIC,"Acinetobacter calcoaceticus, isolate NO-Ab108, Acinetobacter calcoaceticus, read-out: MIC",4 µg/mL
same,MIC,"Acinetobacter calcoaceticus, isolate NO-Ab161, Acinetobacter calcoaceticus, read-out: MIC",4 µg/mL
same,MIC,"Acinetobacter calcoaceticus, isolate NO-Ab198, Acinetobacter calcoaceticus, read-out: MIC",4 µg/mL
same,MIC,"Acinetobacter calcoaceticus, isolate NO-Ab205, Acinetobacter calcoaceticus, read-out: MIC",4 µg/mL
same,MIC,"Acinetobacter calcoaceticus, isolate NO-Ab211, Acinetobacter calcoaceticus, read-out: MIC",2 µg/mL
same,MIC,"Acinetobacter courvalinii, isolate NO-Ab216, Acinetobacter courvalinii, read-out: MIC",1 µg/mL
same,MIC,"Acinetobacter dispersus, isolate NO-Ab2, Acinetobacter dispersus, read-out: MIC",0.5 µg/mL
same,MIC,"Acinetobacter guillouiae, isolate NO-Ab69, Acinetobacter guillouiae, read-out: MIC",2 µg/mL
same,MIC,"Acinetobacter guillouiae, isolate NO-Ab74, Acinetobacter guillouiae, read-out: MIC",2 µg/mL
same,MIC,"Acinetobacter haemolyticus, isolate NO-Ab92, Acinetobacter haemolyticus",2 µg/mL
same,MIC,"Acinetobacter haemolyticus, isolate NO-Ab177, Acinetobacter haemolyticus",1 µg/mL
same,MIC,"Acinetobacter haemolyticus, isolate NO-Ab217, Acinetobacter haemolyticus",2 µg/mL
same,MIC,"Acinetobacter johnsonii, isolate NO-Ab101, Acinetobacter johnsonii, read-out: MIC",4 µg/mL
same,MIC,"Acinetobacter junii, isolate NO-Ab76, Acinetobacter junii, read-out: MIC",0.5 µg/mL
same,MIC,"Acinetobacter junii, isolate NO-Ab77, Acinetobacter junii, OXA-24/40, read-out: MIC",1 µg/mL
same,MIC,"Acinetobacter lactucae, isolate NO-Ab60, Acinetobacter dijkshoorniae, read-out: MIC",2 µg/mL
same,MIC,"Acinetobacter lactucae, isolate NO-Ab63, Acinetobacter dijkshoorniae, read-out: MIC",2 µg/mL
same,MIC,"Acinetobacter lactucae, isolate NO-Ab65, Acinetobacter dijkshoorniae, read-out: MIC",2 µg/mL
same,MIC,"Acinetobacter lactucae, isolate NO-Ab86, Acinetobacter dijkshoorniae, read-out: MIC",1 µg/mL
same,MIC,"Acinetobacter lactucae, isolate NO-Ab88, Acinetobacter dijkshoorniae, read-out: MIC",2 µg/mL
same,MIC,"Acinetobacter lactucae, isolate NO-Ab91, Acinetobacter dijkshoorniae, read-out: MIC",2 µg/mL
same,MIC,"Acinetobacter lactucae, isolate NO-Ab121, Acinetobacter dijkshoorniae, read-out: MIC",4 µg/mL
same,MIC,"Acinetobacter lactucae, isolate NO-Ab125, Acinetobacter dijkshoorniae, read-out: MIC",2 µg/mL
same,MIC,"Acinetobacter lactucae, isolate NO-Ab160, Acinetobacter dijkshoorniae, read-out: MIC",0.5 µg/mL
same,MIC,"Acinetobacter nosocomialis, isolate NO-Ab43, Acinetobacter nosocomialis, read-out: MIC",2 µg/mL
same,MIC,"Acinetobacter nosocomialis, isolate NO-Ab68, Acinetobacter nosocomialis, OXA-24/40, read-out: MIC",4 µg/mL
same,MIC,"Acinetobacter nosocomialis, isolate NO-Ab98, Acinetobacter nosocomialis, read-out: MIC",2 µg/mL
same,MIC,"Acinetobacter nosocomialis, isolate NO-Ab208, Acinetobacter nosocomialis, read-out: MIC",2 µg/mL
same,MIC,"Acinetobacter pittii, isolate NO-Ab59, Acinetobacter pittii, read-out: MIC",2 µg/mL
same,MIC,"Acinetobacter pittii, isolate NO-Ab66, Acinetobacter pittii, read-out: MIC",8 µg/mL
same,MIC,"Acinetobacter pittii, isolate NO-Ab73, Acinetobacter pittii, read-out: MIC",2 µg/mL
same,MIC,"Acinetobacter pittii, isolate NO-Ab75, Acinetobacter pittii, read-out: MIC",4 µg/mL
same,MIC,"Acinetobacter pittii, isolate NO-Ab78, Acinetobacter pittii, read-out: MIC",1 µg/mL
same,MIC,"Acinetobacter pittii, isolate NO-Ab82, Acinetobacter pittii, read-out: MIC",1 µg/mL
same,MIC,"Acinetobacter pittii, isolate NO-Ab89, Acinetobacter pittii, read-out: MIC",1 µg/mL
same,MIC,"Acinetobacter pittii, isolate NO-Ab90, Acinetobacter pittii, read-out: MIC",1 µg/mL
same,MIC,"Acinetobacter pittii, isolate NO-Ab97, Acinetobacter pittii, read-out: MIC",4 µg/mL
same,MIC,"Acinetobacter pittii, isolate NO-Ab105, Acinetobacter pittii, read-out: MIC",1 µg/mL
same,MIC,"Acinetobacter pittii, isolate NO-Ab106, Acinetobacter pittii, read-out: MIC",1 µg/mL
same,MIC,"Acinetobacter pittii, isolate NO-Ab107, Acinetobacter pittii, read-out: MIC",0.5 µg/mL
same,MIC,"Acinetobacter pittii, isolate NO-Ab111, Acinetobacter pittii, read-out: MIC",1 µg/mL
same,MIC,"Acinetobacter pittii, isolate NO-Ab113, Acinetobacter pittii, read-out: MIC",2 µg/mL
same,MIC,"Acinetobacter pittii, isolate NO-Ab118, Acinetobacter pittii, read-out: MIC",2 µg/mL
same,MIC,"Acinetobacter pittii, isolate NO-Ab135, Acinetobacter pittii, read-out: MIC",1 µg/mL
same,MIC,"Acinetobacter pittii, isolate NO-Ab145, Acinetobacter pittii, read-out: MIC",2 µg/mL
same,MIC,"Acinetobacter pittii, isolate NO-Ab151, Acinetobacter pittii, read-out: MIC",2 µg/mL
same,MIC,"Acinetobacter pittii, isolate NO-Ab154, Acinetobacter pittii, read-out: MIC",1 µg/mL
same,MIC,"Acinetobacter pittii, isolate NO-Ab157, Acinetobacter pittii, read-out: MIC",4 µg/mL
same,MIC,"Acinetobacter pittii, isolate NO-Ab162, Acinetobacter pittii, read-out: MIC",8 µg/mL
same,MIC,"Acinetobacter pittii, isolate NO-Ab164, Acinetobacter pittii, read-out: MIC",1 µg/mL
same,MIC,"Acinetobacter pittii, isolate NO-Ab178, Acinetobacter pittii, read-out: MIC",4 µg/mL
same,MIC,"Acinetobacter pittii, isolate NO-Ab197, Acinetobacter pittii, read-out: MIC",2 µg/mL
same,MIC,"Acinetobacter proteolyticus, isolate NO-Ab99, Acinetobacter proteolyticus, read-out: MIC",4 µg/mL
same,MIC,"Acinetobacter proteolyticus, isolate NO-Ab102, Acinetobacter proteolyticus, read-out: MIC",4 µg/mL
same,MIC,"Acinetobacter proteolyticus, isolate NO-Ab210, Acinetobacter proteolyticus, read-out: MIC",1 µg/mL
same,MIC,"Acinetobacter radioresistens, isolate NO-Ab175, Acinetobacter radioresistens, read-out: MIC",0.25 µg/mL
same,MIC,"Acinetobacter radioresistens, isolate NO-Ab215, Acinetobacter radioresistens, read-out: MIC",0.12 µg/mL
same,MIC,"Acinetobacter ursingii, isolate NO-Ab3, Acinetobacter ursingii, read-out: MIC",0.25 µg/mL
same,MIC,"Acinetobacter ursingii, isolate NO-Ab64, Acinetobacter ursingii, read-out: MIC",1 µg/mL
same,MIC,"Acinetobacter ursingii, isolate NO-Ab87, Acinetobacter ursingii, read-out: MIC",0.25 µg/mL
same,MIC,"Acinetobacter ursingii, isolate NO-Ab103, Acinetobacter ursingii, read-out: MIC",2 µg/mL
same,MIC,"Acinetobacter ursingii, isolate NO-Ab119, Acinetobacter ursingii, read-out: MIC",8 µg/mL
same,MIC,"Acinetobacter ursingii, isolate NO-Ab120, Acinetobacter ursingii, read-out: MIC",4 µg/mL
same,MIC,"Acinetobacter ursingii, isolate NO-Ab123, Acinetobacter ursingii, read-out: MIC",2 µg/mL
same,MIC,"Acinetobacter ursingii, isolate NO-Ab126, Acinetobacter ursingii, read-out: MIC",4 µg/mL
same,MIC,"Acinetobacter ursingii, isolate NO-Ab147, Acinetobacter ursingii, read-out: MIC",2 µg/mL
same,MIC,"Acinetobacter ursingii, isolate NO-Ab155, Acinetobacter ursingii, read-out: MIC",4 µg/mL
same,MIC,"Acinetobacter ursingii, isolate NO-Ab165, Acinetobacter ursingii, read-out: MIC",2 µg/mL
same,MIC,"Acinetobacter ursingii, isolate NO-Ab166, Acinetobacter ursingii, read-out: MIC",1 µg/mL
same,MIC,"Acinetobacter ursingii, isolate NO-Ab214, Acinetobacter ursingii, read-out: MIC",4 µg/mL
same,MIC,"Acinetobacter ursingii, isolate NO-Ab221, Acinetobacter ursingii, read-out: MIC",4 µg/mL
same,MIC,"Acinetobacter ursingii, isolate NO-Ab222, Acinetobacter ursingii, read-out: MIC",1 µg/mL
same,MIC,"Acinetobacter, isolate NO-Ab146, Acinetobacter iwoffii, read-out: MIC",2 µg/mL
same,MIC,"Acinetobacter, isolate NO-Ab159, Acinetobacter iwoffii, read-out: MIC",0.5 µg/mL
same,MIC50,[1],2 µg/mL
same,MIC90,[1],4 µg/mL
same,MIC distribution 0.25,[2],4.6
same,MIC distribution 0.5,[2],12.6
same,MIC distribution 1,[2],41.4
same,MIC distribution 2,[2],73.6
same,MIC distribution 4,[2],96.6
same,MIC distribution 8,[2],98.9
same,MIC distribution 16,[2],100
same,MIC distribution 32,[2],100
same,MIC distribution ≤0.06,[2],0
